From patent publication US20250302833A1, “PHARMACEUTICAL COMPOSITION FOR TREATING OR PREVENTING CYSTIC DISEASE” (CHUGAI SEIYAKU KABUSHIKI KAISHA, priority 2022, published 2025) come the findings set out here.

Data set [1] deals with primary cells from kidney tissues of human ADPKD patients. The data set is described as follows: Inhibition of three-dimensional cyst formation using primary cells from kidney tissue of human ADPKD patient. Type of data set: cell-based. The following applies: 168 h, test compound 30 μM, forskolin + ITS stimulation, 7 days 3D culture, average N=3, read-out: Inhibition rate (%) of cyst formation. The protocol: Primary cells were isolated from kidney tissues of human ADPKD patients. Under two-dimensions, the isolated cells were cultured for 2 days using DMEM/F-12 (Thermo Fisher Scientific, Inc.) supplemented with 10% FBS. Subsequently, three-dimensional culture was performed for 7 days using 3D Ready Atelocollagen (KOKEN CO., LTD.). During three-dimensional culture, 50 µM forskolin (Sigma-Aldrich Co. LLC) and ITS liquid media supplements (Sigma-Aldrich Co. LLC) were added as stimulating agents to some of the wells to form cysts, and a test compound was added at the final concentration of 30 μM. The test compound was also added to other wells at the final concentration of 30 μM. After 7 days of three-dimensional culture, it was fixed with 4% paraformaldehyde (Thermo Fisher Scientific, Inc.), and nucleic acid staining and cell membrane staining were performed with Hoechst 33342 (Thermo Fisher Scientific, Inc.) and CellLight Plasma Membrane-RFP, BacMam 2.0 (Thermo Fisher Scientific, Inc.). Three-dimensional imaging and volume analysis were performed using Operetta CLS and image analysis software Harmony (PerkinElmer Japan G.K.). The inhibition rate was determined by the following formula.

Data set [2] deals with PC1 conditional knockout mice (PKD model). The data set is described as follows: Suppression of increase in renal volume and decrease in renal function in PC1 conditional knockout mice. Type of data set: in vivo, mouse. Here is the method:
The PC1 conditional knockout mice, a PKD model, were used to evaluate the effects of tolvaptan and compound 4 in Test Example 1 on (a) renal volume, (b) body weight, and (c) urine volume in PC1 conditional knockout mouse.
Tamoxifen was orally administered to PC1 conditional knockout mice at a dose of 3 mg/kg for 3 days from day 21 after birth. The PC1 conditional knockout mice (5 weeks of age at the start of this test) were grouped into 3 groups of 15 mice each. Compound 4 or tolvaptan was administered as a single agent to the test compound administration group. The administration period was 16 weeks, and they were administered subcutaneously once daily. Compound 4 was administered at 33-40 mg/kg per dose and tolvaptan was administered at 25-30 mg/kg per dose. Compound 4 and tolvaptan were administered after dissolved in 50% DMSO/50% glycerol. A group of mice to which tamoxifen was not administered was provided as a normal control group (Normal Control) (N=7). The 50% DMSO/50% glycerol was administered to the normal control group and the Vehicle group of PC1 conditional knockout mice at 1 mL/kg.
The left renal volume (renal volume (mL)) of mice was calculated by the following formula using echography 16 weeks after the start of administration of the test compound.
After that, euthanasia treatment was performed. In addition, the body weight (Body weight (g)) of mice was measured every 7 days after the start of administration of the test compound. Furthermore, the volume of urine (Urine volume (mL/day)) was calculated from the specific gravity and measured weight of urine 16 weeks after the start of administration of the test compound.

The target in data set [3] is T1, human NaPi-IIb (Homo sapiens, UniProt O95436).
T1 construct: expressed in transfected cells; host or cells: CHO cells, transient transfection with Fugene HD
T1 sequence (O95436 1-690): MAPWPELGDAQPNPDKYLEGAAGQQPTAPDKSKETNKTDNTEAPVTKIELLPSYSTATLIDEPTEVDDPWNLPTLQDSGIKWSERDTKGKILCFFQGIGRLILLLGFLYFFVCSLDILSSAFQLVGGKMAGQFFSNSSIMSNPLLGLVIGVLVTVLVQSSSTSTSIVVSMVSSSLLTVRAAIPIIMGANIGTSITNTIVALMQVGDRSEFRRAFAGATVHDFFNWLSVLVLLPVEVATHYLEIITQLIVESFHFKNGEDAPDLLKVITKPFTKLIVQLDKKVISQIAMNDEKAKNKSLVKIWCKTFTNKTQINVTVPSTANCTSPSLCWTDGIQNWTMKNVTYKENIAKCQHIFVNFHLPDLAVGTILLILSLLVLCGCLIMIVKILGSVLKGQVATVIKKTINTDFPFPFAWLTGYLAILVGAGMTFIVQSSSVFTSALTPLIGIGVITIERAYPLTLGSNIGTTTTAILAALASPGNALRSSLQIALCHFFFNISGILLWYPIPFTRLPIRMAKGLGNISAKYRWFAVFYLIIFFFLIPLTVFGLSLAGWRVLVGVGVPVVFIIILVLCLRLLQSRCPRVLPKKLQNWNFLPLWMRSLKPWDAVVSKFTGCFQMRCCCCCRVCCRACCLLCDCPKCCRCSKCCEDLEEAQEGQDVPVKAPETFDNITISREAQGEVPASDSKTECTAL
The data set is described as follows: 33PO4 uptake inhibition in CHO cells expressing human NaPi-IIb. It counts as cell-based. The following applies: CHO cells transiently expressing human NaPi-IIb, pH 6.5. The protocol:
For transient expression, human NaPi-IIb expression plasmids, human PiT1 expression plasmids, human PiT2 expression plasmids, and Fugene HD Transfection (Promega Corporation) were added to CHO cells using a 96-well plate, and the plate was incubated in a C02 incubator for 16 hours. The medium was replaced with buffer A (145 mM choline chloride, 3 mM KCl, 1 mM CaCl2), 0.5 mM MgCl2, 5 mM glucose, 5 mM MES, (pH 6.5)), and then replaced with buffer B (145 mM NaCl, 3 mM KCl, 1 mM CaCl2, 0.5 mM MgCl2, 5 mM glucose, 5 mM MES (pH 6.5)) to which a test compound was added at the final concentration of 0.01, 0.03, 0.1, 0.3, 1, 3, 10, or 30 μM, buffer A to which DMSO was added, or buffer B to which DMSO was added. After a certain time, a 1/20 amount of buffer A containing ^33PO4 (PerkinElmer Japan G. K.) was added and reacted at room temperature. After washing with ice-cooled buffer A, a liquid scintillator (MicroScint™-20, item number 6013621, PerkinElmer Japan G.K.) was added, and the ^33PO4 uptake amount was measured with the top count (Top Count NXT, PerkinElmer Japan G.K.). The inhibition rate was determined by the following formula. Here, a certain time was set to 10 minutes. The phrase “a 1/20 amount of buffer A containing ^33PO4 (PerkinElmer Japan G.K.) was added” refers to “buffer A containing ^33PO4 (PerkinElmer Japan G.K.) was added in an amount of 1/20 of the amount of solution filling the medium”.
The 50% ^33PO4-uptake inhibition concentrations (ICs) (UM) in a cell expressing human NaPi-Ilb, human PiT1, and human PiT2 were calculated from a straight line through two points sandwiching 50% inhibition rate. It should be noted that compounds 1 and 2 were not measured for baman PiT1 and human PiT2, which was indicated as “-” in Table 1.

What is called inhibition is the share of the control response that was lost under treatment. One may read the IC50 as the midpoint of a concentration-inhibition curve. Read a low IC50 as greater potency in that assay. On to `CCCN([C@H]1CC[C@H](C(=O)[O-])CC1)S(=O)(=O)c1cccc(C(=O)Nc2sc3c(c2C(=O)Nc2ccc(CCCc4ccc(C(=O)[O-])cc4)cc2)CCCC3)c1.[Na+].[Na+]` [Compound 4, Disodium; 4-[3-[4-[[2-[[3-[(4-carboxylatocyclohexyl)-propylsulfamoyl]benzoyl]ami-no]-4,5,6,7-tetrahydro-1-benzothiophene-3-carbonyl]amino]phenyl]pro-pyl]benzoic acid], for which the inhibition at 30 µM in data set [1] worked out at 94.4%. Besides, the “Body weight (weight loss)” value in data set [2] (16 weeks administration, compared to tolvaptan) was “less weight loss”. The Urine volume result in data set [2] (16 weeks after start of administration, compared to tolvaptan) is reported as “no increase in urine volume”. Moreover, in data set [2] (33-40 mg/kg s.c. once daily, 16 weeks), the “Suppression effect on decrease in renal function” value is “suppression effect”. Further, in data set [2] (33-40 mg/kg s.c. once daily, 16 weeks, left renal volume by echography), the “Suppression effect on increase in renal volume” value is on record as “suppression effect”. The IC50 in data set [3] turned out to be 31 nM.
